Legend:
[1] = system: bicistronic HCV replicon (replicon RNA, GenBank Accession No. AJ242654); assay: HCV Replicon Assay; assay type: cell-based; details: Hepatitis C virus, 72 h, read-out: Replicon IC50

Compound	melting point	IC50 [1]
CC(C)NS(=O)(=O)c1cnc(-c2c(C#N)c3ccc(C(F)F)cc3n2C2CCC2)nc1 [compound 332, 2-[3-cyano-1-cyclobutyl-6-(difluoromethyl)-1H-indol-2-yl]-N-(propan-2-yl)pyrimidine-5-sulfonamide]	221 to 227 °C	< 500 nM
COc1ccc2c(C#N)c(-c3ncc(S(=O)(=O)NC(C)C)cn3)n(C3CCC3)c2c1 [compound 172, 2-(3-cyano-1-cyclobutyl-6-methoxy-1H-indol-2-yl)-N-(propan-2-yl)pyrimidine-5-sulfonamide]	200 to 202 °C	< 500 nM
COc1ccc2c(C#N)c(-c3ccc(S(=O)(=O)N[C@@H](C)C(F)(F)F)cn3)n(C3CCC3)c2c1 [compound 427, 6-(3-cyano-1-cyclobutyl-6-methoxy-1H-indol-2-yl)-N-[(2S)-1,1,1-trifluoropropan-2-yl]pyridine-3-sulfonamide]	206 to 212 °C	< 500 nM
N#Cc1c(-c2ccc(S(=O)(=O)NC3(C(F)(F)F)CCC3)cn2)n(C2CCCC2)c2cc(OC(F)F)ccc12 [compound 588, 6-[3-cyano-1-cyclopentyl-6-(difluoromethoxy)-1H-indol-2-yl]-N-[1-(trifluoromethyl)cyclobutyl]pyridine-3-sulfonamide]	172 to 176 °C	< 500 nM
N#Cc1c(-c2ccc(S(=O)(=O)NC(CF)CF)cn2)n(-c2ccccn2)c2cc(Cl)ccc12 [compound 438, 6-[6-chloro-3-cyano-1-(pyridin-2-yl)-1H-indol-2-yl]-N-(1,3-difluoropropan-2-yl)pyridine-3-sulfonamide]	219 to 221 °C	< 500 nM
CS(=O)(=O)Nc1ccc(-c2c(C#N)c3ccc(C4CC4)cc3n2C2CCC2)cn1 [compound 287, N-[5-(3-cyano-1-cyclobutyl-6-cyclopropyl-1H-indol-2-yl)pyridin-2-yl]methanesulfonamide]	239 to 241 °C	500 to 2000 nM
C[C@@H](NS(=O)(=O)c1ccc(-c2c(C#N)c3cc(F)ccc3n2C2CCCCC2)nc1)C(F)(F)F [compound 261, 6-(3-cyano-1-cyclohexyl-5-fluoro-1H-indol-2-yl)-N-[(2R)-1,1,1-trifluoropropan-2-yl]pyridine-3-sulfonamide]	208 to 210 °C	< 500 nM
Cc1cc2c(cc1Cl)c(C#N)c(-c1ncc(S(=O)(=O)N[C@@H](C)C(F)(F)F)cn1)n2C1CCC1 [compound 448, 2-(5-chloro-3-cyano-1-cyclobutyl-6-methyl-1H-indol-2-yl)-N-[(2S)-1,1,1-trifluoropropan-2-yl]pyrimidine-5-sulfonamide]	> 300 °C	500 to 2000 nM
CC(C)n1c(-c2ncc(S(=O)(=O)NC(CF)CF)cn2)c(C#N)c2ccc(F)cc21 [compound 165, 2-[3-cyano-6-fluoro-1-(propan-2-yl)-1H-indol-2-yl]-N-(1,3-difluoropropan-2-yl)pyrimidine-5-sulfonamide]	149 to 150 °C	500 to 2000 nM
Cc1cc2c(cc1F)c(C#N)c(-c1ccc(S(=O)(=O)N[C@@H](C)C(F)(F)F)cn1)n2-c1cccnc1 [compound 893, 6-[3-cyano-5-fluoro-6-methyl-1-(pyridin-3-yl)-1H-indol-2-yl]-N-[(2S)-1,1,1-trifluoropropan-2-yl]pyridine-3-sulfonamide]	217 to 221 °C	< 500 nM
Cc1cc2c(cc1Cl)c(C#N)c(-c1ccc(S(=O)(=O)N[C@@H](C)C(F)(F)F)cn1)n2-c1ccccn1 [compound 803, 6-[5-chloro-3-cyano-6-methyl-1-(pyridin-2-yl)-1H-indol-2-yl]-N-[(2S)-1,1,1-trifluoropropan-2-yl]pyridine-3-sulfonamide]	210 to 212 °C	< 500 nM
Cc1cc2c(cc1F)c(C(N)=O)c(-c1ccc(S(=O)(=O)NC3(C(F)(F)F)CC3)cn1)n2C1CCCCC1 [compound 857, 1-cyclohexyl-5-fluoro-6-methyl-2-(5-{[1-(trifluoromethyl)cyclopropyl]sulfamoyl}pyridin-2-yl)-1H-indole-3-carboxamide]	273 to 274 °C	< 500 nM
Cc1ccc2c(C#N)c(-c3ccc(S(=O)(=O)N[C@@H](C)C(F)(F)F)cn3)n(CC3CC3)c2c1 [compound 353, 6-[3-cyano-1-(cyclopropylmethyl)-6-methyl-1H-indol-2-yl]-N-[(2S)-1,1,1-trifluoropropan-2-yl]pyridine-3-sulfonamide]	165 to 168 °C	< 500 nM
Cc1cc2c(cc1F)c(C#N)c(-c1ccc(S(=O)(=O)NC(C)(C)C(F)(F)F)cn1)n2C1CCCC1 [compound 681, 6-(3-cyano-1-cyclopentyl-5-fluoro-6-methyl-1H-indol-2-yl)-N-(1,1,1-trifluoro-2-methylpropan-2-yl)pyridine-3-sulfonamide]	223 to 225 °C	< 500 nM
Cc1ccc2c(C#N)c(-c3ncc(S(=O)(=O)N[C@@H](C)C4CC4)cn3)n(C3CCCC3)c2c1 [compound 204, 2-(3-cyano-1-cyclopentyl-6-methyl-1H-indol-2-yl)-N-[(1S)-1-cyclopropylethyl]pyrimidine-5-sulfonamide]	180 to 182 °C	< 500 nM
N#Cc1c(-c2ccc(S(=O)(=O)Nc3ccccc3)cn2)n(C2CCC2)c2cc(OC(F)F)c(F)cc12 [compound 791, 6-[3-cyano-1-cyclobutyl-6-(difluoromethoxy)-5-fluoro-1H-indol-2-yl]-N-phenylpyridine-3-sulfonamide]	178 to 179 °C	2000 to 5000 nM
Cc1ccc2c(c1)c(C#N)c(-c1ccc(S(=O)(=O)N[C@@H](C)C(F)(F)F)cn1)n2C1CCCC1 [compound 345, 6-(3-cyano-1-cyclopentyl-5-methyl-1H-indol-2-yl)-N-[(2S)-1,1,1-trifluoropropan-2-yl]pyridine-3-sulfonamide]	195 to 200 °C	< 500 nM
COc1ccc2c(C#N)c(-c3ncc(S(=O)(=O)NC(CF)CF)cn3)n(C3CCCCC3)c2c1 [compound 520, 2-(3-cyano-1-cyclohexyl-6-methoxy-1H-indol-2-yl)-N-(1,3-difluoropropan-2-yl)pyrimidine-5-sulfonamide]	209 to 215 °C	500 to 2000 nM
CC(NS(=O)(=O)c1ccc(-c2c(C#N)c3ccc(OC(F)F)cc3n2C2CCCC2)nc1)C(F)(F)F (stereo not shown) [compound 53, 6-[3-cyano-1-cyclopentyl-6-(difluoromethoxy)-1H-indol-2-yl]-N-(1,1,1-trifluoropropan-2-yl)pyridine-3-sulfonamide]	189 to 195 °C	< 500 nM
C[C@@H](NS(=O)(=O)c1ccc(-c2c(C#N)c3cc(F)ccc3n2-c2ncccn2)nc1)C(F)(F)F [compound 673, 6-[3-cyano-5-fluoro-1-(pyrimidin-2-yl)-1H-indol-2-yl]-N-[(2R)-1,1,1-trifluoropropan-2-yl]pyridine-3-sulfonamide]	202 to 205 °C	< 500 nM
N#Cc1c(-c2ncc(S(=O)(=O)NC(CF)CF)cn2)n(C2CCCCC2)c2ccc(F)cc12 [compound 527, 2-(3-cyano-1-cyclohexyl-5-fluoro-1H-indol-2-yl)-N-(1,3-difluoropropan-2-yl)pyrimidine-5-sulfonamide]	250 to 253 °C	< 500 nM
C[C@H](NS(=O)(=O)c1ccc(-c2c(C#N)c3ccc(C#N)cc3n2C2CCC2)nc1)C(F)(F)F [compound 467, 6-(3,6-dicyano-1-cyclobutyl-1H-indol-2-yl)-N-[(2S)-1,1,1-trifluoropropan-2-yl]pyridine-3-sulfonamide]	223 to 225 °C	< 500 nM
C[C@H](NS(=O)(=O)c1cnc(-c2c(C#N)c3ccc(CC(F)F)cc3n2C2CCCC2)nc1)C1CC1 [compound 597, 2-[3-cyano-1-cyclopentyl-6-(2,2-difluoroethyl)-1H-indol-2-yl]-N-[(1S)-1-cyclopropylethyl]pyrimidine-5-sulfonamide]	181 to 189 °C	< 500 nM
Cc1c(F)cc2c(C#N)c(-c3ccc(S(=O)(=O)NC(C)(C)C(F)(F)F)cn3)n(C3CCC3)c2c1F [compound 577, 6-(3-cyano-1-cyclobutyl-5,7-difluoro-6-methyl-1H-indol-2-yl)-N-(1,1,1-trifluoro-2-methylpropan-2-yl)pyridine-3-sulfonamide]	180 to 187 °C	< 500 nM
Cc1ccc(-n2c(-c3ncc(S(=O)(=O)NC(C)C)cn3)c(C#N)c3cc(F)ccc32)cc1 [compound 357, 2-[3-cyano-5-fluoro-1-(4-methylphenyl)-1H-indol-2-yl]-N-(propan-2-yl)pyrimidine-5-sulfonamide]	200 to 202 °C	< 500 nM
N#Cc1c(-c2ncc(S(=O)(=O)NC(CF)CF)cn2)n(C2CCCCC2)c2cc(F)ccc12 [compound 235, 2-(3-cyano-1-cyclohexyl-6-fluoro-1H-indol-2-yl)-N-(1,3-difluoropropan-2-yl)pyrimidine-5-sulfonamide]	213 to 218 °C	< 500 nM
CCc1cc2c(cc1F)c(C(N)=O)c(-c1ccc(NS(=O)(=O)C(C)(C)C)nc1)n2[C@H](C)C1CC1 [compound 1104, 2-{6-[(tert-butylsulfonyl)amino]pyridin-3-yl}-1-[(1R)-1-cyclopropylethyl]-6-ethyl-5-fluoro-1H-indole-3-carboxamide]	255.5 to 259 °C	< 500 nM
CC[C@H](NS(=O)(=O)c1ccc(-c2c(C#N)c3cc(F)c(C)cc3n2C2CCC2)nc1)C(F)(F)F [compound 826, 6-(3-cyano-1-cyclobutyl-5-fluoro-6-methyl-1H-indol-2-yl)-N-[(2S)-1,1,1-trifluorobutan-2-yl]pyridine-3-sulfonamide]	212 to 217 °C	< 500 nM
Cc1cc2c(cc1F)c(C#N)c(-c1ccc(S(=O)(=O)N[C@@H](C)C(F)(F)F)cn1)n2-c1cncc(F)c1 [compound 945, 6-[3-cyano-5-fluoro-1-(5-fluoropyridin-3-yl)-6-methyl-1H-indol-2-yl]-N-[(2S)-1,1,1-trifluoropropan-2-yl]pyridine-3-sulfonamide]	199 to 204 °C	< 500 nM

Source: patent US8735414B2 (priority 2009, dated 2014)
